This note sets out measurements from patent US6916915B1, “Stressor regulated genes” (Duke University, priority 1998, dated 2005).

For assay [1], the system named is C. elegans. Briefly: Northern blot analysis of steady-state mRNA levels after cadmium exposure. The assay is classed as in vivo, Caenorhabditis elegans. The settings on record: for Fold-change in mRNA levels following cadmium exposure, VL1 (Northern blot): clone VL1 (mtl-1). As for the experimental part: (§1) Growth and isolation of C. elegans—The N2 strain of C. elegans was grown in liquid S medium (0.1M NaCl, 50 mM potassium phosphate, pH 6.0, 5 μg/ml cholesterol, 10 mM potassium citrate, 3 mM CaCl2, 3 mM MgCl2, 50 μM EDTA, 25 μM FeSO4, 10 μM MnCl2, 10 μM ZnSO4 and 1 μM CuSO4) using E. coli OP50 as a food source (Brenner, S. (1974) Genetics 77, 71-94). In experiments where nematodes were exposed to cadmium, the medium was supplemented with 100 μM CdCl2 (Freedman, J. H. et al. (1993) J. Biol. Chem. 268, 2554-2564). C. elegans were grown in the presence of metal for 8 h or 24 h at ˜20° C. Nematodes were then collected following centrifugation at 800×g for 5 min. Pellets were suspended in 5 mM NaCl containing 35% sucrose (final concentration) and viable nematodes were collected from the top of the solution following centrifugation at 1000×g for 5 min at 4° C. Nematodes were then washed three times by suspension in M9 buffer (22 mM KH2PO4, 42 mM Na2HPO4, 85 mM NaCl, 1 mM MgSO4) followed by sedimentation at 800×g. Washed nematode pellets were finally suspended in a small volume of M9 buffer, rapidly frozen in liquid nitrogen and stored at −80° C.
RNA isolation—Total RNA was isolated from mix-stage populations of C. elegans exposed to 100 μM CdCl2 for 8 h and 24 h and control, non-exposed nematodes. Frozen worms were first ground into a fine powder using a liquid nitrogen-cooled mortar and pestle. Powdered C. elegans (200 mg) were then homogenized in 2 ml of TRIzol (GIBCO/BRL). RNA was then collected from the aqueous phase following the addition of chloroform, precipitated by adding isopropyl alcohol and then air-dried. The dried RNA pellet was then dissolved in diethyl pyrocarbonate (DEPC)-treated water. For some experiments, poly(A^+) RNA was subsequently isolated using the Poly(A) Tract System following manufacturer's instructions (Promega).
Northern Blot Analysis-Samples of total RNA (20 μg) or poly(A^+) RNA (2 μg) were denatured in a 2.2M formaldehyde/50% (v/v) formamide buffer and then subjected to denaturing gel electrophoresis on a 1.5% agarose/2.2M formaldehyde gel. Size-fractionated RNAs were then transferred to Nytran membrane (Schleicher and Schuell). Membranes were probed with ^32P-labeled cDNA fragments of the differentially expressed mRNAs. cDNAs to be used as probes were generated by the PCR from the cloned DNA fragments recovered from differential display gels. cDNAs were labeled with [α-^32]dCTP (Amersham) by random-primed labeling. Membranes were hybridized in 6 ×SSC (1×SSC=0.15M sodium chloride, 15 mM sodium citrate, pH 7.0), 1.25× Denhardt's solution, 0.5% sodium dodecyl sulfate (SDS), 300 ng denatured sonicated salmon sperm DNA and heat-denatured probe at 42° C. for 16 h. Following hybridization, membranes were washed at a high stringency of 50° C. for 30 min in 0.1×SSC/0.1% SDS. The amount of probe hybridizing to the RNA was determined by PhosphorImager analysis (Molecular Dynamic System) . After images were obtained, membranes were incubated at 95° C. for 1 h in 0.1% SDS to remove the bound probe. They were then hybridized with a ^32P-labeled C. elegans myosin light-chain probe, which served as a loading control (Freedman, J. H. et al. (1993) J. Biol. Chem. 268, 2554-2564). As a positive control, membranes were also hybridized to a ^32P-labeled C. elegans metallothonein-2 (mtl-2) cDNA probe (Freedman, J. H. et al. (1993) J. Biol. Chem. 268, 2554-2564). Quantification of radioactivity was performed using the ImageQuant program (Molecular Dynamic System). Steady-state levels of mRNA expression were all normalized to that of the constitutively expressed myosin light-chain mRNAs (Freedman, J. H. et al. (1993) J. Biol. Chem. 268, 2554-2564; Cummins, C. et al. (198B) Mol. Cell. Biol 8, 5334-5349).

Assay [2] concerns C. elegans. Briefly: mRNA differential display of control and cadmium-treated nematodes. The format is in vivo, Caenorhabditis elegans. The settings on record: cadmium-treated C. elegans cDNA compared to the control. As for the experimental part:
as §1
RNA isolation—Total RNA was isolated from mix-stage populations of C. elegans exposed to 100 μM CdCl2 for 8 h and 24 h and control, non-exposed nematodes. […]

“And” between values parts separate entries of the source, which are not always exact repeats. Equal values may be shown once.

For the compound `[Cl][Cd][Cl]` [cadmium, CdCl2], in the assay on C. elegans [1] (100 μM CdCl2 for 24 h vs control C. elegans), the “steady-state level of mtl-2 mRNA” value is “increased”. In the assay on C. elegans [1] (clone DDRT16, 24 hours, 100 μM CdCl2, value in parenthesis, by Northern blot), the “Fold-change in mRNA levels following cadmium exposure, DDRT16 (Northern blot)” value turned out to be 3.5 fold. In addition, the “Fold-change in mRNA levels following cadmium exposure, VL1 (Northern blot)” value in the assay on C. elegans [1] (8 hours, 100 μM CdCl2, value in parenthesis, by Northern blot) is listed as “(4.7) fold”; in the assay with C. elegans [1] (24 hours, 100 μM CdCl2, value in parenthesis, by Northern blot) it was “(5.2) fold”. Also, the “Fold-change in mRNA levels following cadmium exposure, VL19 (Northern blot)” value in the assay with C. elegans [1] (clone VL19, 24 hours, 100 μM CdCl2, value in parenthesis, by Northern blot) amounted to 2.3 fold. Also, the “Fold-change in mRNA levels following cadmium exposure, VL21 (Northern blot)” value in the assay on C. elegans [1] (clone VL21, 24 hours, 100 μM CdCl2, value in parenthesis, by Northern blot) was 2 fold and 2.0 fold. Moreover, the “band intensity of VL9 cDNA in differential display” value in the assay on C. elegans [2] is “decreased band intensity”.
